Laboratory results reported in patent US20230059463A1, “3-(2-BROMO-4-ALKYNYL-6-ALKOXYPHENYL)-SUBSTITUTED 5-SPIROCYCLOHEXYL-3-PYRROLIN-2-ONES AND THEIR USE AS HERBICIDES” (Bayer Aktiengesellschaft, priority 2019, published 2023).

Key:
Assay type in all cases: in vivo
Alopecurus myosuroides [1] = experiment: Pre-emergence herbicidal effect; conditions: 80 g/ha, scored visually after 3 weeks, 100% = plants have died, 0% = like control plants
From the text: (§1) Seeds of monocotyledonous and dicotyledonous weed plants and crop plants are laid out in sandy loam soil in wood-fiber pots and covered with soil. The compounds of the invention, formulated in the form of wettable powders (WP) or as emulsion concentrates (EC), are then applied to the surface of the covering soil as aqueous suspension or emulsion at a water application rate equating to 600 to 800 L/ha with addition of 0.2% wetting agent.
(§2) After the treatment, the pots are placed in a greenhouse and kept under good growth conditions for the trial plants. The damage to the test plants is scored visually after a test period of 3 weeks by comparison with untreated controls (herbicidal activity in percent (%): 100% activity=the plants have died, 0% activity=like control plants).

Avena fatua = experiment: Pre-emergence herbicidal effect; conditions: 80 g/ha, scored visually after 3 weeks, 100% = plants have died, 0% = like control plants
From the text: as §1, §2

Echinochloa crus-galli [2] = experiment: Pre-emergence herbicidal effect; conditions: 80 g/ha, scored visually after 3 weeks, 100% = plants have died, 0% = like control plants
From the text: as §1, §2

Hordeum murinum [3] = experiment: Pre-emergence herbicidal effect; conditions: 80 g/ha, scored visually after 3 weeks, 100% = plants have died, 0% = like control plants
From the text: as §1, §2

Lolium rigidum [4] = experiment: Pre-emergence herbicidal effect; conditions: 80 g/ha, scored visually after 3 weeks, 100% = plants have died, 0% = like control plants
From the text: as §1, §2

Setaria viridis [5] = experiment: Pre-emergence herbicidal effect; conditions: 80 g/ha, scored visually after 3 weeks, 100% = plants have died, 0% = like control plants
From the text: as §1, §2

Alopecurus myosuroides [6] = experiment: Post-emergence herbicidal effect; conditions: 80 g/ha, post-emergence at one-leaf stage, assessed visually after about 3 weeks; 100% = plants have died, 0% = like control plants
Protocol: (§3) Seeds of monocotyledonous and dicotyledonous weed and crop plants are laid out in sandy loam soil in wood-fiber pots, covered with soil and cultivated in a greenhouse under good growth conditions. 2 to 3 weeks after sowing, the test plants are treated at the one-leaf stage. The compounds of the invention, formulated in the form of wettable powders (WP) or as emulsion concentrates (EC), are then sprayed onto the green parts of the plants as aqueous suspension or emulsion at a water application rate equating to 600 to 800 l/ha with addition of 0.2% wetting agent. After the test plants have been left to stand in the greenhouse under optimal growth conditions for about 3 weeks, the action of the preparations is assessed visually in comparison to untreated controls (herbicidal action in per cent (%): 100% activity=the plants have died, 0% activity=like control plants).

Echinochloa crus-galli [7] = experiment: Post-emergence herbicidal effect; conditions: 80 g/ha, post-emergence at one-leaf stage, assessed visually after about 3 weeks; 100% = plants have died, 0% = like control plants
Protocol: as §3

Hordeum murinum [8] = experiment: Post-emergence herbicidal effect; conditions: 80 g/ha, post-emergence at one-leaf stage, assessed visually after about 3 weeks; 100% = plants have died, 0% = like control plants
Protocol: as §3

Lolium rigidum [9] = experiment: Post-emergence herbicidal effect; conditions: 80 g/ha, post-emergence at one-leaf stage, assessed visually after about 3 weeks; 100% = plants have died, 0% = like control plants
Protocol: as §3

Setaria viridis [10] = experiment: Post-emergence herbicidal effect; conditions: 80 g/ha, post-emergence at one-leaf stage, assessed visually after about 3 weeks; 100% = plants have died, 0% = like control plants
Protocol: as §3

Digitaria sanguinalis = experiment: Post-emergence herbicidal effect; conditions: 80 g/ha, post-emergence at one-leaf stage, assessed visually after about 3 weeks; 100% = plants have died, 0% = like control plants
Protocol: as §3

SMILES	Pre-emergence action against ALOMY (herbicidal activity in percent) (Alopecurus myosuroides [1]) [%]	Pre-emergence action against AVEFA (herbicidal activity in percent) (Avena fatua) [%]	Pre-emergence action against ECHCG (herbicidal activity in percent) (Echinochloa crus-galli [2]) [%]	Pre-emergence action against HORMU (herbicidal activity in percent) (Hordeum murinum [3]) [%]	Pre-emergence action against LOLRI (herbicidal activity in percent) (Lolium rigidum [4]) [%]	Pre-emergence action against SETVI (herbicidal activity in percent) (Setaria viridis [5]) [%]	Post-emergence action against ALOMY (herbicidal action in per cent) (Alopecurus myosuroides [6]) [%]	Post-emergence action against ECHCG (herbicidal action in per cent) (Echinochloa crus-galli [7]) [%]	Post-emergence action against HORMU (herbicidal action in per cent) (Hordeum murinum [8]) [%]	Post-emergence action against LOLRI (herbicidal action in per cent) (Lolium rigidum [9]) [%]	Post-emergence action against SETVI (herbicidal action in per cent) (Setaria viridis [10]) [%]	Post-emergence action against DIGSA (herbicidal action in per cent) (Digitaria sanguinalis) [%]
CC#Cc1cc(Br)c(C2=C(O)C3(CCCC(OCCOC)C3)NC2=O)c(OC)c1 (stereo not shown) [Example 1.1.13]	100	100	100	100	100	100	100	100	100	100	100	–
C#Cc1cc(Br)c(C2=C(O)C3(CCCC(OCCOC)C3)NC2=O)c(OC)c1 (stereo not shown) [Example 1.1.05]	90	90	100	90	100	100	90	80	–	80	90	80
CC#Cc1cc(Br)c(C2=C([O-])C3(CCCC(OCCOC)C3)NC2=O)c(OC)c1.[Na+] (stereo not shown) [Example 1.1.14]	100	100	100	100	100	100	80	90	80	90	90	–
CC#Cc1cc(Br)c(C2=C(OC(=O)OCC)C3(CCCC(OCCC)C3)NC2=O)c(OC)c1 (stereo not shown) [Example 1.1.11, 3-[2-Bromo-6-methoxy-4-(prop-1-yn-1-yl)phenyl]-2-oxo-7-propoxy-1-azaspiro[4.5]dec-3-en-4-yl ethyl carbonate]	–	–	–	–	–	–	–	–	100	–	–	–
C#Cc1cc(Br)c(C2=C(OC(=O)OCC)C3(CCCC(OCCOC)C3)NC2=O)c(OC)c1 (stereo not shown) [Example 1.1.07]	90	90	100	90	100	100	80	80	–	80	90	90
C#Cc1cc(Br)c(C2=C(OC(=O)C(C)C)C3(CCCC(OCCC)C3)NC2=O)c(OC)c1 (stereo not shown) [Example 1.1.04]	100	90	100	90	100	100	90	80	–	80	100	90
CCOC(=O)OC1=C(c2c(Br)cc(C#CBr)cc2OC)C(=O)NC12CCCC(OCCOC)C2 (stereo not shown) [Example 1.1.25]	80	–	–	–	90	100	90	90	–	80	90	80
C#Cc1cc(Br)c(C2=C(OC(=O)OCC)C3(CCCC(OCCC)C3)NC2=O)c(OC)c1 (stereo not shown) [Example 1.1.03]	90	90	100	90	100	100	80	90	–	80	100	90
C#Cc1cc(Br)c(C2=C(OC(=O)C(C)C)C3(CCCC(OCCOC)C3)NC2=O)c(OC)c1 (stereo not shown) [Example 1.1.08]	100	90	100	90	100	100	90	80	–	90	90	90
COCCOC1CCCC2(C1)NC(=O)C(c1c(Br)cc(C#CBr)cc1OC)=C2O (stereo not shown) [Example 1.1.23]	90	–	–	–	90	100	90	90	–	80	100	80
CC#Cc1cc(Br)c(C2=C(OC(=O)C(C)C)C3(CCCC(OCCC)C3)NC2=O)c(OC)c1 (stereo not shown) [Example 1.1.12]	100	90	100	100	100	100	–	–	–	–	–	–
